Source: patent US20260069580A1, “PEROXIREDOXIN 3 INHIBITORS AND METHODS OF USE FOR TREATING CANCER” (WAKE FOREST UNIVERSITY HEALTH SCIENCES, priority 2022, published 2026)
Values after ≈ are worked out from the molar mass of the structure shown. Like-named read-outs stand apart in the source and are kept apart here.

Assays:
[1] = tested on: Enterococcus hirae (ATCC #10541); test: Antimicrobial Activity Assay; type: cell-based; details: for MIC: Enterococcus hirae
Procedure: The overnight growth was then diluted into growth media to make a single solution of E. hirae with a final optical density at 600 nm=0.02 AU. A 20 mM stock solution of Thiostrepton in DMSO was made and used to make multiple dilutions of TS in DMSO. Each TS dilution (0.1 mL) was then added to a test tube containing 10 mL of the diluted E. hirae and grown at 37° C. overnight while shaking at 180 rpm. The next morning, each tube was visually inspected to determine if the cells grew. Final concentrations tested were 0.120, 0.090, 0.075, 0.060, 0.045, 0.030, and 0.015 μM TS. […] Three replicates were made on three separate days (n=9). […] For TS analogs, the dilute E. hirae was treated with 20 µM final concentration of each analog (three replicates each). […] DMSO was used as a positive control (complete cell growth) and 20 µM thiostrepton was used as a negative control.

Solubility Assay = type: physicochemical; parameters: key: +++: >1 mM; ++: 0.1-1 mM; +: <0.1 mM; −: polymerized; n.d.: not detectable/not measurable; details: 20 mM HEPES, 100 mM NaCl, pH 7.5, 18-24 hours at ambient temperature, HPLC
Procedure: A 20 mM stock solution was made for each compound in DMSO. To measure solubility, 0.03-0.05 mL of the stock was added to 0.27 mL 20 mM HEPES, 100 mM NaCl, pH 7.5. The solution was mixed and rotated 18-24 hours at ambient temperature. The next day, solutions were centrifuged for 10 min at 20,000×g at 24° C. to remove insoluble, solid material. Next, 100 μL of the supernatant containing the soluble compound was added to 900 μL DMSO and High Performance Liquid Chromatography was performed as described in Table 1 and either HPLC gradient 1 (Table 2) for HPLC gradient 2 (Table 3). For each analog, a 200 μM standard and a 20 μM standard were prepared and run in parallel (standards were dissolved completely in 100% DMSO). The amount of compound in the experimental sample was calculated by comparing the area under the curve for compound peak to the area for the closest standard and correcting for dilution.

[2] = tested on: human SK—OV-3 ovarian cancer cells; test: Cellular Activity Assay (cytotoxicity, crystal violet); type: cell-based
From the text: To test the activity of compounds, two complimentary assays were used as described below. The Biochemical PRX3 Inhibition Assay tests the ability of each compound to crosslink PRX3 in a simple, in vitro system. In the Cellular Activity Assay, we are testing the ability of compounds to kill SK—OV-3 ovarian cancer cells.
The Cellular Activity Assay measures the EC50 of each compound in human SK—OV-3 ovarian cancer cells TS to be taken into the cell, transported to the mitochondria, and crosslink PRX3.
The cytotoxicity of compounds was measured as described in Nelson et al. (2021) Antioxidants (Basel) 10, 150; Cunniff et al. (2015) PloS one 10, e0127310; and Newick et al. (2012) PloS one 7, e39404. SK—OV-3 is an adherent, epithelial, adenocarcenoma cell line obtained from ATCC (ref #: HTB-77). SK—OV-3 cells are resistant to the commonly used chemotherapeutics, cis-platinum and doxorubicin. For this […], SK—OV-3 cells were plated in a 96-well plate. After 24 h recovery, the cells were treated for 48 hr with multiple concentrations of each compound ranging from 0.1-100 μM.
Cells were washed with PBS to remove dead cells and the remaining live cells were fixed with 3.0% formaldehyde and stained with 0.1% crystal violet. The amount of crystal violet was determined by reading the absorbance at 540 nm (crystal violet dye dissolved in 100% methanol) using a plate reader. The signal for crystal violet dye is proportional to the biomass of remaining live cells. GraphPad Prism9 software was used to calculate the effective inhibitory concentration (EC50) of test compounds. Results for each compound, are normalized to the amount of cells in control wells treated with the equivalent concentration of DMSO (negative control). TS or Compound A (Reference Compound) were included in each set of assays as a positive control.

purified human PRX3 = target: T1, purified human PRX3 (Homo sapiens, UniProt P30048); test: Biochemical PRX3 Inhibition Assay (crosslink by SDS PAGE + mono-adduct by MALDI-TOF MS); details: incubated 1-2 hr at 37° C., hydrogen peroxide added
T1 construct: made in house
T1 sequence (P30048 62-256): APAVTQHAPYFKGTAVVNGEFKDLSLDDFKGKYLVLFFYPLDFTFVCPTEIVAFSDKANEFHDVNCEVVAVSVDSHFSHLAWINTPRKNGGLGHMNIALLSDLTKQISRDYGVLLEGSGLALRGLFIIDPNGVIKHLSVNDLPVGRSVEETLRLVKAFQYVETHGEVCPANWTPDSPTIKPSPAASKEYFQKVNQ
Procedure: This assay tests the ability of each compound to form a covalent adduct with PRX3. The assay is performed as described in Nelson et al. (2021) Antioxidants (Basel) 10, 150; and Cunniff et al. (2015) PloS one 10, eO127310, and follows the appearance of non-reducible PRX3 crosslinks by SDS PAGE gel electrophoresis and follows the appearance of single PRX3 adducts by mass spectrometry. For this assay, purified human PRX3, hydrogen peroxide (the PRX3 substrate) and all the components required to enable PRX3 to catalytically cycle (thioredoxin-thioredoxin reductase-NAPDH system) are included (details below).
The biochemical PRX3 Inhibition assay contains 100 µM PRX3, 50 µM human TRX2, 0.5 μM mouse thioredoxin reductase, and a NADPH regenerating system composed of 3.2 mM glucose 6-phosphate, 3.2 U/ml glucose 6-phosphate dehydrogenase and 0.4 mM NADPH. Samples are incubated for 1-2 hr at 37° C. with either 0.2 mM TS (positive control), compounds or an equivalent volume of DMSO (negative control). During this incubation, hydrogen peroxide is added to induce turnover of PRX3. Reactions are stopped by the addition of a buffer containing 100 mM dithiolthreitol (to break disulfide bonds) and SDS (detergent to denature proteins). NADPH, Glucose 6-Phosphate, and glucose 6-phosphate dehydrogenase were purchased from Sigma Aldrich. PRX3, thioredoxin, and thioredoxin reductase were all purified to >98% purity in the Lowther laboratory according to protocols referenced in Nelson et al. (2021) Antioxidants (Basel) 10, 150; and Cunniff et al. (2015) PloS one 10, e0127310.
To measure the amount of PRX3 crosslink, proteins in the reaction were separated by SDS-polyacrlyamide gel electrophoresis and stained for total protein using GelCode Blue (Life Technologies). The amount of unmodified PRX3 and TS-PRX3 crosslink was measured by densiometric analysis of the signal for the PRX3 band running at the MW of a PRX3 crosslink (˜46 kDa) compared to the PRX3 signal at the MW of the un-modified PRX3 (˜23 kD).
To measure covalent adduct formation on a single PRX3 monomer, each reaction was exchanged into a mass spectrometry compatible buffer containing 40 mM ammonium citrate, pH 8.3 made in HPLC water. Sample was mixed 1:1 with a matrix solution containing 30 mg/mL sinapinic acid in 70% (vol/vol) acetonitrile, 0.2% formic acid and spotted to onto the sample plate. PRX3 mass was measured by MALDI-TOF MS analysis on a Bruker Daltonics MALDI-TOF MS spectrometer. Spectra were analyzed in FLEXAnalysis Software. The intensity of the reduced PRX3 peak (SH) and intensity of the analog adduct peak was determined and corrected for background signal at the adduct peak in the DMSO control. The fraction of single analog adduct in the monomer peak was determined by dividing the intensity of the adduct peak by the summed intensity of the SH and adduct peaks.

578 cancer cells lines = details: of 578 cancer cells lines tested; cited from earlier work
[3] = ATCC10541, E. hirae, overnight growth at 37° C., read-out: Antimicrobial Activity
[4] = HEPES/NaCl buffer, aqueous with cosolvent or surfactant or cyclodextrin, kinetic from dmso stock, read-out: Solubility
[5] = SK—OV-3 cells, treated 48 hr, 0.1-100 μM, crystal violet, read-out: EC50
[6] = ATCC10541, read-out: Antimicrobial Activity

Row | SMILES | MIC [1, 3] [µM] | solubility (Solubility Assay; [4]) [µM] | PRX3 Inhibition (Crosslink + Mono-adduct) (purified human PRX3) | EC50 [2, 5] [µM] | other results
1 | C=C(NC(=O)c1ccn(C2CCN(C(=O)OC(C)(C)C)CC2)n1)C(=O)NC(=C)C(=O)OC [Compound 6, Tert-butyl 4-(3-((3-((3-methoxy-3-oxoprop-1-en-2-yl)amino)-3-oxoprop-1-en-2-yl)carbamoyl)-1H-pyrazol-1-yl)piperidine-1-carboxylate] | > 20 | > 1000 | +++ (>90%) | 25 to 100 | 
2 | C=C(NC(=O)c1cnn(-c2ccccc2)c1)C(=O)NC(=C)C(=O)OC [Compound 2, Methyl 2-(2-(1-phenyl-1H-pyrazole-4-carboxamido)acrylamido)acrylate] | > 20 | > 1000 | ++ (50-90%) | 10 to 25 | 
3 | C=C(NC(=O)C(=C)NC(=O)c1csc(C2=N[C@@H]3c4csc(n4)[C@H]4NC(=O)c5csc(n5)[C@H]([C@](C)(O)[C@@H](C)O)NC(=O)[C@H]5CSC(=N5)/C(=C/C)NC(=O)[C@H]([C@@H](C)O)NC(=O)c5csc(n5)[C@]3(CC2)NC(=O)[C@H](C)NC(=O)C(=C)NC(=O)[C@H](C)NC(=O)[C@H]([C@@H](C)CC)N[C@@H]2C=Cc3c([C@H](C)O)cc(nc3[C@H]2O)C(=O)O[C@@H]4C)n1)C(N)=O [Thiostrepton, reference compound] |  |  | ++ (50-90%) |  | TS concentrations at which complete growth was observed ([1]; E. hirae, overnight at 37° C., visual inspection, n=9): ≤ 0.030 µM; MIC [1, 6]: 0.02 to 0.2 µM (≈ 0.0333 to 0.333 µg/mL); MIC ([1]; ATCC10541, read-out: TS concentrations at which no growth was observed (MIC determination)): ≥ 0.045 µM; solubility (Solubility Assay; aqueous with cosolvent or surfactant or cyclodextrin, kinetic from dmso stock, read-out: Solubility): < 100 µM; tumor cells lines in which meaningful efficacy was shown (578 cancer cells lines): 403; EC50 ([2]; SK-OV-3, 48 h): 1 to 10 µM
4 | C=C(NC(=O)c1cn(-c2ccccc2)cn1)C(=O)NC(=C)C(=O)OC [Compound 1, Methyl 2-(2-(1-phenyl-1H-imidazole-4-carboxamido)acrylamido)acrylate] |  | < 100 | +++ (>90%) |  | MIC [1, 6]: > 20 µM; EC50 ([2]; SK-OV-3, 48 h): 1 to 10 µM
5 | C=C(NC(=O)c1csc(-c2ccc(NC(=O)CCCCCBr)cc2)n1)C(=O)NC(=C)C(=O)OC [Compound A, Methyl 2-(2-(2-(4-(6-bromohexanamido)phenyl)thiazole-4-carboxamido)acrylamido)acrylate, reference compound] |  | < 100 |  |  | Antimicrobial Activity ([1]; E. hirae, overnight growth at 37° C.): − (>20 μM)

The next lines start with results.

Row | MIC [1, 3] [µM] | solubility (Solubility Assay; [4]) [µM] | PRX3 Inhibition (Crosslink + Mono-adduct) (purified human PRX3) | SMILES | EC50 [2, 5] [µM] | other results
6 | > 20 | < 100 | ++ (50-90%) | C=C(NC(=O)c1cn(C2CCN(C(=O)OC(C)(C)C)CC2)nn1)C(=O)NC(=C)C(=O)OC [Compound 5, Tert-butyl 4-(4-((3-((3-methoxy-3-oxoprop-1-en-2-yl)amino)-3-oxoprop-1-en-2-yl)carbamoyl)-1H-1,2,3-triazol-1-yl)piperidine-1-carboxylate] | 1 to 10 | 
7 |  |  | + (5-50%) | C=C(NC(=O)OCC1CCN(C(=O)OC(C)(C)C)CC1)C(=O)NC(=C)C(=O)OC [Compound 3, Tert-butyl 4-(5,8-dimethylene-3,6,9-trioxo-2,10-dioxa-4,7-diazaundecyl)piperidine-1-carboxylate] |  | solubility (Solubility Assay): −
8 | > 20 | > 1000 | ++ (50-90%) | C=C(NC(=O)OC1CCN(C(=O)OC(C)(C)C)CC1)C(=O)NC(=C)C(=O)OC [Compound 4, Tert-butyl 4-(((3-((3-methoxy-3-oxoprop-1-en-2-yl)amino)-3-oxoprop-1-en-2-yl)carbamoyl)oxy)piperidine-1-carboxylate] | > 100 | 
